Measurements published in the NIST ThermoML archive (doi:10.1021/je050006+).

Experiments:
[1] = xn = mol fraction of the nth substance listed; conditions: 101.3 kPa, Liquid
[2] = excess molar enthalpy (molar enthalpy of mixing); xn = mol fraction of the nth substance listed; conditions: 101.3 kPa, Liquid

C=C1CCC2CC1C2(C)C (stereo not drawn) [β-pinene] + CCCO
Conditions | excess molar enthalpy [kcal/mol] | mass density [kg/m3] | speed of sound [m/s]
[1], 283.15 K, x1 = 0.0505 | – | 818.13 | 1265.6
[1], 283.15 K, x1 = 0.1024 | – | 824.2 | 1272.7
[1], 283.15 K, x1 = 0.2046 | – | 834.58 | 1285.3
[1], 283.15 K, x1 = 0.3046 | – | 843.01 | 1296
[1], 283.15 K, x1 = 0.405 | – | 850.35 | 1305.5
[1], 283.15 K, x1 = 0.5035 | – | 856.46 | 1313.7
[1], 283.15 K, x1 = 0.599 | – | 861.68 | 1321.2
[1], 283.15 K, x1 = 0.7026 | – | 866.65 | 1328.8
[1], 283.15 K, x1 = 0.8026 | – | 871.06 | 1336.3
[1], 283.15 K, x1 = 0.8834 | – | 874.33 | 1342.6
[1], 283.15 K, x1 = 0.9488 | – | – | 1348.5
[1], 283.15 K, x1 = 0.9489 | – | 876.85 | –
[1], 283.15 K, x1 = 0.9812 | – | 878.27 | 1352.9
[1], 298.15 K, x1 = 0.053 | – | 806.47 | 1212.9
[1], 298.15 K, x1 = 0.1036 | – | 812.35 | 1219
[1], 298.15 K, x1 = 0.2039 | – | 822.4 | 1229.7
[1], 298.15 K, x1 = 0.3038 | – | 830.81 | 1239.1
[1], 298.15 K, x1 = 0.3966 | – | 837.49 | 1246.9
[1], 298.15 K, x1 = 0.5122 | – | 844.67 | 1255.7
[1], 298.15 K, x1 = 0.6005 | – | 849.44 | 1261.8
[1], 298.15 K, x1 = 0.699 | – | 854.2 | 1268.6
[1], 298.15 K, x1 = 0.793 | – | – | 1275.4
[1], 298.15 K, x1 = 0.7931 | – | 858.43 | –
[1], 298.15 K, x1 = 0.8937 | – | 862.59 | 1283.3
[1], 298.15 K, x1 = 0.9426 | – | 864.54 | 1287.9
[1], 298.15 K, x1 = 0.9834 | – | 866.31 | 1293.6
[1], 313.15 K, x1 = 0.0514 | – | 794.24 | 1160.5
[1], 313.15 K, x1 = 0.1021 | – | 800.04 | 1165.7
[1], 313.15 K, x1 = 0.2032 | – | 810.14 | 1175
[1], 313.15 K, x1 = 0.307 | – | 818.69 | 1183.4
[1], 313.15 K, x1 = 0.405 | – | 825.65 | 1190.4
[1], 313.15 K, x1 = 0.5007 | – | 831.57 | 1196.5
[1], 313.15 K, x1 = 0.6004 | – | 837.06 | 1202
[1], 313.15 K, x1 = 0.7051 | – | 842.2 | 1206.4
[1], 313.15 K, x1 = 0.7928 | – | 846.14 | 1213.3
[1], 313.15 K, x1 = 0.8931 | – | 850.44 | 1222.1
[1], 313.15 K, x1 = 0.9407 | – | 852.42 | 1225.6
[1], 313.15 K, x1 = 0.9786 | – | 854.11 | 1228.9
[2], 283.15 K, x1 = 0.067 | 0.0146 | – | –
[2], 283.15 K, x1 = 0.135 | 0.0304 | – | –
[2], 283.15 K, x1 = 0.263 | 0.0564 | – | –
[2], 283.15 K, x1 = 0.38 | 0.0755 | – | –
[2], 283.15 K, x1 = 0.488 | 0.0891 | – | –
[2], 283.15 K, x1 = 0.585 | 0.0963 | – | –
[2], 283.15 K, x1 = 0.677 | 0.0994 | – | –
[2], 283.15 K, x1 = 0.764 | 0.097 | – | –
[2], 283.15 K, x1 = 0.855 | 0.086 | – | –
[2], 283.15 K, x1 = 0.926 | 0.0674 | – | –
[2], 283.15 K, x1 = 0.97 | 0.0473 | – | –
[2], 298.15 K, x1 = 0.067 | 0.0213 | – | –
[2], 298.15 K, x1 = 0.135 | 0.0423 | – | –
[2], 298.15 K, x1 = 0.263 | 0.0803 | – | –
[2], 298.15 K, x1 = 0.38 | 0.109 | – | –
[2], 298.15 K, x1 = 0.488 | 0.129 | – | –
[2], 298.15 K, x1 = 0.585 | 0.14 | – | –
[2], 298.15 K, x1 = 0.677 | 0.147 | – | –
[2], 298.15 K, x1 = 0.764 | 0.14 | – | –
[2], 298.15 K, x1 = 0.855 | 0.127 | – | –
[2], 298.15 K, x1 = 0.926 | 0.0978 | – | –
[2], 298.15 K, x1 = 0.97 | 0.0626 | – | –
[2], 313.15 K, x1 = 0.067 | 0.0277 | – | –
[2], 313.15 K, x1 = 0.135 | 0.0581 | – | –
[2], 313.15 K, x1 = 0.263 | 0.11 | – | –
[2], 313.15 K, x1 = 0.38 | 0.15 | – | –
[2], 313.15 K, x1 = 0.488 | 0.177 | – | –
[2], 313.15 K, x1 = 0.585 | 0.192 | – | –
[2], 313.15 K, x1 = 0.677 | 0.196 | – | –
[2], 313.15 K, x1 = 0.764 | 0.188 | – | –
[2], 313.15 K, x1 = 0.855 | 0.163 | – | –
[2], 313.15 K, x1 = 0.926 | 0.124 | – | –
[2], 313.15 K, x1 = 0.97 | 0.0791 | – | –

C=C1CCC2CC1C2(C)C (stereo not drawn) [β-pinene] + CCO
Conditions | excess molar enthalpy, [2] [kcal/mol] | mass density, [1] [kg/m3] | speed of sound, [1] [m/s]
283.15 K, x1 = 0.0507 | – | 807.27 | 1209.5
283.15 K, x1 = 0.071 | 0.0261 | – | –
283.15 K, x1 = 0.1012 | – | 815.62 | 1222.5
283.15 K, x1 = 0.142 | 0.0492 | – | –
283.15 K, x1 = 0.2046 | – | 829.52 | 1246.3
283.15 K, x1 = 0.269 | 0.0798 | – | –
283.15 K, x1 = 0.3015 | – | 839.85 | 1265.4
283.15 K, x1 = 0.394 | 0.0997 | – | –
283.15 K, x1 = 0.4042 | – | 848.66 | 1282.4
283.15 K, x1 = 0.496 | 0.109 | – | –
283.15 K, x1 = 0.5145 | – | 856.44 | 1298.8
283.15 K, x1 = 0.599 | 0.117 | – | –
283.15 K, x1 = 0.6019 | – | 861.6 | 1309.4
283.15 K, x1 = 0.689 | 0.117 | – | –
283.15 K, x1 = 0.6981 | – | 866.52 | 1320.5
283.15 K, x1 = 0.773 | 0.115 | – | –
283.15 K, x1 = 0.7932 | – | 870.77 | 1330.4
283.15 K, x1 = 0.864 | 0.105 | – | –
283.15 K, x1 = 0.8762 | – | 874.13 | 1339.3
283.15 K, x1 = 0.93 | 0.0844 | – | –
283.15 K, x1 = 0.9355 | – | 876.41 | 1345.8
283.15 K, x1 = 0.964 | 0.0664 | – | –
283.15 K, x1 = 0.9799 | – | 878.19 | 1353.4
298.15 K, x1 = 0.0502 | – | 794.53 | 1156.2
298.15 K, x1 = 0.071 | 0.0349 | – | –
298.15 K, x1 = 0.1022 | – | 803.02 | 1168.9
298.15 K, x1 = 0.142 | 0.0645 | – | –
298.15 K, x1 = 0.1999 | – | 816.23 | 1189.9
298.15 K, x1 = 0.269 | 0.104 | – | –
298.15 K, x1 = 0.3045 | – | 827.43 | 1209
298.15 K, x1 = 0.394 | 0.129 | – | –
298.15 K, x1 = 0.4019 | – | 835.85 | 1224.1
298.15 K, x1 = 0.496 | 0.14 | – | –
298.15 K, x1 = 0.5 | – | 842.91 | 1237.4
298.15 K, x1 = 0.599 | 0.145 | – | –
298.15 K, x1 = 0.6017 | – | 849.06 | 1249.8
298.15 K, x1 = 0.689 | 0.145 | – | –
298.15 K, x1 = 0.6999 | – | 854.18 | 1260.6
298.15 K, x1 = 0.7626 | – | 857.17 | 1264.9
298.15 K, x1 = 0.773 | 0.139 | – | –
298.15 K, x1 = 0.864 | 0.122 | – | –
298.15 K, x1 = 0.89 | – | 862.45 | 1280.4
298.15 K, x1 = 0.93 | 0.0932 | – | –
298.15 K, x1 = 0.9415 | – | 864.49 | 1286.3
298.15 K, x1 = 0.964 | 0.0777 | – | –
298.15 K, x1 = 0.98 | – | 866.07 | 1294.5
313.15 K, x1 = 0.052 | – | 782.17 | 1104.8
313.15 K, x1 = 0.071 | 0.0433 | – | –
313.15 K, x1 = 0.1041 | – | 790.76 | 1116.6
313.15 K, x1 = 0.142 | 0.0813 | – | –
313.15 K, x1 = 0.2043 | – | 804.04 | 1135.7
313.15 K, x1 = 0.269 | 0.135 | – | –
313.15 K, x1 = 0.3029 | – | 814.57 | 1151.7
313.15 K, x1 = 0.394 | 0.171 | – | –
313.15 K, x1 = 0.4046 | – | 823.44 | 1167
313.15 K, x1 = 0.496 | 0.19 | – | –
313.15 K, x1 = 0.4981 | – | 830.17 | 1178.5
313.15 K, x1 = 0.599 | 0.2 | – | –
313.15 K, x1 = 0.6014 | – | 836.54 | 1189.8
313.15 K, x1 = 0.689 | 0.199 | – | –
313.15 K, x1 = 0.6979 | – | 841.7 | 1198.7
313.15 K, x1 = 0.773 | 0.191 | – | –
313.15 K, x1 = 0.809 | – | 846.76 | 1207
313.15 K, x1 = 0.864 | 0.167 | – | –
313.15 K, x1 = 0.8844 | – | 850.12 | 1213.6
313.15 K, x1 = 0.93 | 0.137 | – | –
313.15 K, x1 = 0.9356 | – | 852.26 | 1221.9
313.15 K, x1 = 0.964 | 0.0944 | – | –
313.15 K, x1 = 0.985 | – | 854.6 | 1228.9
